Measurements from ChEMBL document CHEMBL1147058, “An antibiotic produced by an insect-pathogenic bacterium suppresses host defenses through phenoloxidase inhibition” (Proc Natl Acad Sci U S A, 2007).
Active and inactive are the calls of the source. The rule behind the calls is not given here.

Columns and labels:
[1] = target: T1, Prophenoloxidase (Manduca sexta) (UniProt Q0VJU6); experiment: Inhibition of Manduca sexta phenoloxidase at 60 uM
T1 sequence (whole entry): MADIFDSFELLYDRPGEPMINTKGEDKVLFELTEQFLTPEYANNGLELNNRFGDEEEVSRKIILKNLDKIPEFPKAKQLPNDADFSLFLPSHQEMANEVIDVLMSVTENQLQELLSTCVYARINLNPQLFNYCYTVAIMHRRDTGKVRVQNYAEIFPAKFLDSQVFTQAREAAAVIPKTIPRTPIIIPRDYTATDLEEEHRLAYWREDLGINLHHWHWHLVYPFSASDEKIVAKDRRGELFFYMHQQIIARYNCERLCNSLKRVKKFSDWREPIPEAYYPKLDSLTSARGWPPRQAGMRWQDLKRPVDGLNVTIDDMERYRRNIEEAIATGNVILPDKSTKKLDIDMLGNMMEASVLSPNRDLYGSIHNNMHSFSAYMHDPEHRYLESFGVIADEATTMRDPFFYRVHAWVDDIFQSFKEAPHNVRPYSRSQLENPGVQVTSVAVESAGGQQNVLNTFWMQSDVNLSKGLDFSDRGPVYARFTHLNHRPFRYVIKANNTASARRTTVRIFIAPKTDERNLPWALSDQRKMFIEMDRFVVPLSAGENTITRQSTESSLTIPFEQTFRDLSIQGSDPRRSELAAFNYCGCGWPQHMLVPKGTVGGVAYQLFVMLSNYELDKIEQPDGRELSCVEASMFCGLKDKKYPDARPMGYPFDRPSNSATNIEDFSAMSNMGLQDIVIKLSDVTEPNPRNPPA

Manduca sexta = experiment: Inhibition of immune system assessed as suppression of melanotic nodule formation in Photorhabdus luminescens TT01 infected Manduca sexta; type: functional, organism-based
Photorhabdus luminescens [2] = experiment: Induction of virulence of Photorhabdus luminescens TT01 assessed as decrease in survival of Photorhabdus luminescens TT01 infected Manduca sexta; type: functional
Photorhabdus luminescens [3] = experiment: Induction of virulence of Photorhabdus luminescens TT01 assessed as decrease in survival of Photorhabdus luminescens TT01 infected Manduca sexta in presence of cinnamic acid; type: functional
Photorhabdus luminescens [4] = experiment: Induction of virulence of Photorhabdus luminescens TT01 assessed as increase in proliferation of Photorhabdus luminescens TT01 in Manduca sexta; type: functional
[5] = Drug level in Photorhabdus luminescens TT01 infected Manduca sexta hemolymph after 24 hrs by TLC plate method; type: ADME, tissue-based; conditions: read-out: Drug uptake
Photorhabdus luminescens [6] = experiment: Induction of virulence of Photorhabdus luminescens TT01 assessed as increase in proliferation of Photorhabdus luminescens TT01 in Manduca sexta in presence of cinnamic acid; type: functional
Photorhabdus luminescens [7] = experiment: Induction of virulence of stlA deficient Photorhabdus luminescens BMM901 assessed as decrease in survival of Photorhabdus luminescens BMM901 infected Manduca sexta in presence of cinnamic acid; type: functional
Photorhabdus luminescens [8] = experiment: Induction of virulence of stlA deficient Photorhabdus luminescens BMM901 assessed as increase in proliferation of Photorhabdus luminescens BMM901 in Manduca sexta in presence of cinnamic acid; type: functional

With CC(C)c1c(O)cc(/C=C/c2ccccc2)cc1O [TAPINAROF] the Activity [1] was “Dose-dependent effect”, the Activity (Manduca sexta) was “Active” and the Activity (Photorhabdus luminescens [2]) was “Active”. For the same compound, the Activity (Photorhabdus luminescens [3]) was “Active”, the Activity (Photorhabdus luminescens [4]) was “Active” and the concentration at 24 h [5] was 275 µg/mL. The Activity (Photorhabdus luminescens [6]) was “Active”, the Activity (Photorhabdus luminescens [7]) was “Active” and the Activity (Photorhabdus luminescens [8]) was “Active”.
